Experimental data from ChEMBL document CHEMBL1201862, “PubChem BioAssay data set” (2004).
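Values below derive from 48-hour exposures of cells grown in 96-well plates, with endpoints linearly interpolated between the two concentrations bracketing the appropriate inhibition level. The concentration for 50% growth inhibition is given as GI50.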 Calls of active or inactive are those of the source. Rule as the data show it: active = GI50 up to about 1.1 µM and inactive = higher.

Columns and labels:
Assay in all cases: NCI-60 cell line screen, 48 h
[1] = test system: COLO 205
[2] = test system: MCF7
[3] = test system: MDA-N
[4] = test system: TK-10
[5] = test system: MOLT-4
[6] = test system: UACC-62
[7] = test system: OVCAR-4
[8] = test system: HOP-92
[9] = test system: HCT-116
[10] = test system: SK-MEL-5
[11] = test system: U-251
[12] = test system: SK-OV-3
[13] = test system: CAKI-1
[14] = test system: PC-3
[15] = test system: M14
[16] = test system: DU-145
[17] = test system: K562
[18] = test system: MDA-MB-435
[19] = test system: UO-31
[20] = test system: MDA-MB-231
[21] = test system: EKVX
[22] = test system: CCRF-CEM
[23] = test system: HCC 2998
[24] = test system: BT-549
[25] = test system: SR
[26] = test system: OVCAR-8
[27] = test system: IGROV-1
[28] = test system: RXF 393
[29] = test system: NCI-H23
[30] = test system: A549
[31] = test system: SNB-19
[32] = test system: Malme-3M
[33] = test system: ACHN
[34] = test system: SF-268
[35] = test system: SW-620
[36] = test system: Hs-578T
[37] = test system: LOX IMVI
[38] = test system: A498
[39] = test system: HL-60
[40] = test system: UACC-257
[41] = test system: SK-MEL-28
[42] = test system: NCI/ADR-RES
[43] = test system: OVCAR-5
[44] = test system: NCI-H460
[45] = test system: HOP-62
[46] = test system: 786-0
[47] = test system: SF-539
[48] = test system: HCT-15
[49] = test system: SN12C
[50] = test system: SK-MEL-2
[51] = test system: OVCAR-3
[52] = test system: HT-29
[53] = test system: RPMI-8226
[54] = test system: T47D
[55] = test system: KM12
[56] = test system: NCI-H522
[57] = test system: NCI-H226
[58] = test system: SF-295
[59] = test system: SNB-75

## COC(=O)C(Cc1ccc2c(c1)CCCC2)Cc1cc2c(cc1C(O)OC)CCC2 (stereo not drawn)
[1]
  GI50: 37.7 µM (inactive)
[2]
  GI50: 29.4 µM (inactive)
[3]
  GI50: 56.8 µM (inactive)
[4]
  GI50: 62.2 µM (inactive)
[5]
  GI50: 58.9 µM (inactive)
[6]
  GI50: > 100 µM (inactive)
[7]
  GI50: 80 µM (inactive)
[8]
  GI50: 18.5 µM (inactive)
[9]
  GI50: 39.6 µM (inactive)
[10]
  GI50: 33.4 µM (inactive)
[11]
  GI50: 49.4 µM (inactive)
[12]
  GI50: > 100 µM (inactive)
[13]
  GI50: > 100 µM (inactive)
[14]
  GI50: 19.5 µM (inactive)
[15]
  GI50: 93.3 µM (inactive)
[16]
  GI50: > 100 µM (inactive)
[17]
  GI50: 35.1 µM (inactive)
[18]
  GI50: 38.2 µM (inactive)
[19]
  GI50: 93.8 µM (inactive)
[20]
  GI50: > 100 µM (inactive)
[21]
  GI50: 39.4 µM (inactive)
[22]
  GI50: 58.9 µM (inactive)
[23]
  GI50: 57.9 µM (inactive)
[24]
  GI50: > 100 µM (inactive)
[25]
  GI50: 38.5 µM (inactive)
[26]
  GI50: > 100 µM (inactive)
[27]
  GI50: > 100 µM (inactive)
[28]
  GI50: 24.3 µM (inactive)
[29]
  GI50: 73.5 µM (inactive)
[30]
  GI50: 41.5 µM (inactive)
[31]
  GI50: > 100 µM (inactive)
[32]
  GI50: 38.1 µM (inactive)
[33]
  GI50: 67.1 µM (inactive)
[34]
  GI50: 49.9 µM (inactive)
[35]
  GI50: 67.1 µM (inactive)
[36]
  GI50: 57.9 µM (inactive)
[37]
  GI50: 30.4 µM (inactive)
[38]
  GI50: > 100 µM (inactive)
[39]
  GI50: 11.8 µM (inactive)
[40]
  GI50: 14.7 µM (inactive)
[41]
  GI50: 55 µM (inactive)
[42]
  GI50: 32.8 µM (inactive)
[43]
  GI50: 80.9 µM (inactive)
[44]
  GI50: 35.8 µM (inactive)
[45]
  GI50: > 100 µM (inactive)
[46]
  GI50: 33.3 µM (inactive)
[47]
  GI50: 39.1 µM (inactive)
[48]
  GI50: 33.7 µM
[49]
  GI50: 96.2 µM (inactive)
[50]
  GI50: > 100 µM (inactive)
[51]
  GI50: 89.7 µM (inactive)
[52]
  GI50: 27.7 µM (inactive)
[53]
  GI50: 27.9 µM (inactive)
[54]
  GI50: 29.3 µM (inactive)
[55]
  GI50: 44.7 µM (inactive)
[56]
  GI50: 50.1 µM (inactive)
[57]
  GI50: > 100 µM (inactive)
[58]
  GI50: 61.5 µM (inactive)
[59]
  GI50: > 100 µM (inactive)

## C=C(C)[C@@H]1CC[C@]2(C(=O)OC3OC(COC4OC(CO)C(OC5OC(C)C(O)C(O)C5O)C(O)C4O)C(O)C(O)C3O)CC[C@]3(C)[C@H](CC[C@@H]4[C@@]5(C)CC[C@H](O)[C@@](C)(CO)[C@@H]5CC[C@]43C)[C@@H]12 (stereo partly drawn)
[1]
  GI50: 1.63 µM (inactive)
[2]
  GI50: 3.02 µM (inactive)
[3]
  GI50: 4.58 µM (inactive)
[4]
  GI50: 3.49 µM (inactive)
[5]
  GI50: 0.39 µM (active)
[6]
  GI50: 1.99 µM (inactive)
[7]
  GI50: 3.44 µM (inactive)
[8]
  GI50: 3.1 µM (inactive)
[9]
  GI50: 2.18 µM (inactive)
[10]
  GI50: 2.84 µM (inactive)
[11]
  GI50: 1.64 µM (inactive)
[12]
  GI50: 3.24 µM (inactive)
[13]
  GI50: 3.4 µM (inactive)
[14]
  GI50: 2.6 µM (inactive)
[15]
  GI50: 3.48 µM (inactive)
[16]
  GI50: 4.8 µM (inactive)
[17]
  GI50: 0.802 µM (active)
[18]
  GI50: 3.51 µM (inactive)
[19]
  GI50: 3.93 µM (inactive)
[20]
  GI50: 3.56 µM (inactive)
[21]
  GI50: 2.2 µM (inactive)
[22]
  GI50: 0.043 µM (active)
[23]
  GI50: 2.56 µM (inactive)
[24]
  GI50: 3.06 µM (inactive)
[25]
  GI50: 0.755 µM (active)
[26]
  GI50: 3.97 µM (inactive)
[27]
  GI50: 2.74 µM (inactive)
[28]
  GI50: 5.06 µM (inactive)
[29]
  GI50: 1.04 µM (active)
[30]
  GI50: 0.986 µM (active)
[31]
  GI50: 2.72 µM (inactive)
[32]
  GI50: 3.78 µM (inactive)
[33]
  GI50: 2 µM (inactive)
[34]
  GI50: 2.93 µM (inactive)
[35]
  GI50: 2.16 µM (inactive)
[36]
  GI50: 3.64 µM (inactive)
[37]
  GI50: 2.58 µM (inactive)
[38]
  GI50: 2.48 µM (inactive)
[39]
  GI50: 0.0986 µM (active)
[40]
  GI50: 4.63 µM (inactive)
[41]
  GI50: 5.79 µM (inactive)
[42]
  GI50: 2.91 µM (inactive)
[43]
  GI50: 6.81 µM (inactive)
[44]
  GI50: 1.37 µM (inactive)
[45]
  GI50: 3.61 µM (inactive)
[46]
  GI50: 3.98 µM (inactive)
[47]
  GI50: 2.58 µM (inactive)
[48]
  GI50: 2.39 µM
[49]
  GI50: 3.5 µM (inactive)
[50]
  GI50: 2.39 µM (inactive)
[51]
  GI50: 1.84 µM (inactive)
[52]
  GI50: 3.05 µM (inactive)
[53]
  GI50: 0.929 µM (active)
[54]
  GI50: 3.4 µM (inactive)
[55]
  GI50: 0.625 µM (active)
[56]
  GI50: 2.66 µM (inactive)
[57]
  GI50: 3.16 µM (inactive)
[58]
  GI50: 1.27 µM (inactive)
[59]
  GI50: 4.39 µM (inactive)
